Counter-ions that a name gives are not always drawn.

For this assay, the target named is T1, HIV integrase (Human immunodeficiency virus type 1 group M subtype B, UniProt P12497, F1332H).
T1 construct: HIV integrase full length gene; made in house; host or cells: Escherichia coli BL21(DE3), plasmid pET21a-INH
Description: Determination of enzyme (HIV integrase) inhibitory activity. The note with it: recombinant HIV integrase (F185H), strand transfer ELISA, absorbance at 450 nm. Type of assay: biochemical. The essentials:
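Full-length integrase with F185H, expressed in E. coli and purified, was reacted for 60 min at 37 °C with compound and biotinylated donor DNA bound to streptavidin plates. Target DNA was added for 10 min, then anti-digoxigenin-peroxidase detection at A450; IC50 from % inhibition versus enzyme-free blank.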
(In general: ELISA stands for enzyme-linked immunosorbent assay.)
Broadly, the IC50 is the concentration at which inhibition is half-maximal. With `CCCNC(=O)c1cn2ccn(Cc3cccc(Cl)c3)c(=O)c2c(O)c1=O` [Example 171, N-propyl-2-(3-chlorobenzyl)-9-hydroxy-1,8-dioxo-1,8-dihydro-2H-pyrido[1,2-a]pyrazine-7-carboxamide], the IC50 was < 0.01 µM.
For `O=C1c2c(O)c(=O)ccn2C(CO)CN1Cc1ccc(Cl)c(Cl)c1` (stereo not shown) [Example 28, 2-(3,4-dichlorobenzyl)-9-hydroxy-4-hydroxymethyl-3,4-dihydro-2H-pyrido[1,2-a]pyrazine-1,8-dione] the value was 0.01 to 0.1 µM; for `CC(=O)Nc1ccc(CNC(=O)c2cn3c(c(O)c2=O)C(=O)N(Cc2ccc(F)cc2)CC3)cc1` [Example 428, N-(4-acetylaminobenzyl)-2-(4-fluorobenzyl)-9-hydroxy-1,8-dioxo-1,3,4,8-tetrahydro-2H-pyrido[1,2-a]pyrazine-7-carboxamide], 0.01 to 0.1 µM; for `O=C1c2c(O)c(=O)c(-c3nccs3)cn2CCN1CCCc1c(F)cccc1Cl` [Example 264, 2-[3-(2-chloro-6-fluorophenyl)propyl]-9-hydroxy-7-(thiazol-2-yl)-3,4-dihydro-2H-pyrido[1,2-a]pyrazine-1,8-dione], < 0.01 µM.
Turning to `CCC(=O)Nc1cn2ccn(Cc3cccc(Cl)c3)c(=O)c2c(O)c1=O` [Example 242, N-[2-(3-chlorobenzyl)-9-hydroxy-1,8-dioxo-1,8-dihydro-2H-pyrido[1,2-a]pyrazin-7-yl]propionamide], the IC50 is < 0.01 µM.
For `O=C1c2c(O)c(=O)c(-c3cc[nH]n3)cn2CCN1Cc1cccc(Cl)c1` [Example 267, 2-(3-chlorobenzyl)-9-hydroxy-7-(1H-pyrazol-3-yl)-3,4-dihydro-2H-pyrido[1,2-a]pyrazine-1,8-dione] the value was 0.01 to 0.1 µM.
The same measure for `O=c1ccn2ccn(Cc3cccc(Cl)c3O)c(=O)c2c1O` [Example 179, 2-(3-chloro-2-hydroxybenzyl)-9-hydroxy-2H-pyrido[1,2-a]pyrazine-1,8-dione hydrochloride]: 0.01 to 0.1 µM; for `O=C(NCc1ccccn1)c1cn2c(c(O)c1=O)C(=O)N(Cc1cccc(Cl)c1)CC2` [Example 372, N-(pyridin-2-ylmethyl)-2-(3-chlorobenzyl)-9-hydroxy-1,8-dioxo-1,3,4,8-tetrahydro-2H-pyrido[1,2-a]pyrazine-7-carboxamide hydrochloride]: 0.01 to 0.1 µM; for `Cn1cc2c(c(O)c1=O)C(=O)N(Cc1cccc(Cl)c1)CC2` [Example 106, 2-(3-chlorobenzyl)-8-hydroxy-6-methyl-2,3,4,6-tetrahydro-2,6-naphthyridine-1,7-dione]: 0.01 to 0.1 µM.
For `O=c1ccn2ccn(CCCc3ccc(Cl)cc3)c(=O)c2c1O` [Example 70, 2-[3-(4-chlorophenyl)propyl]-9-hydroxy-2H-pyrido[1,2-a]pyrazine-1,8-dione] the value was 0.01 to 0.1 µM.
Consider `CC(=O)Nc1cn2ccn(Cc3ccc(F)c(Cl)c3)c(=O)c2c(O)c1=O` [Example 240, N-[2-(3-chloro-4-fluorobenzyl)-9-hydroxy-1,8-dioxo-1,8-dihydro-2H-pyrido[1,2-a]pyrazin-7-yl]acetamide], for which the IC50 is < 0.01 µM.
For `O=C1c2c(O)c(=O)c(-c3cnccn3)cn2CCN1Cc1ccc(F)c(Cl)c1` [Example 348, 2-(3-chloro-4-fluorobenzyl)-9-hydroxy-7-(pyrazin-2-yl)-3,4-dihydro-2H-pyrido[1,2-a]pyrazine-1,8-dione] the value was 0.01 to 0.1 µM; for `CC(C)c1cn(Cc2cccc(Cl)c2)c(=O)c2c(O)c(=O)c(-c3ccccc3)cn12` [Example 131, 2-(3-chlorobenzyl)-9-hydroxy-4-isopropyl-7-phenyl-2H-pyrido[1,2-a]pyrazine-1,8-dione hydrochloride], 0.01 to 0.1 µM.
For `CS(=O)(=O)CCNC(=O)c1cn2ccn(Cc3cccc(Cl)c3)c(=O)c2c(O)c1=O` [Example 209, N-(2-methanesulfonylethyl)-2-(3-chlorobenzyl)-9-hydroxy-1,8-dioxo-1,8-dihydro-2H-pyrido[1,2-a]pyrazine-7-carboxamide] the value was 0.01 to 0.1 µM; for `COCCNC(=O)c1cn2ccn(Cc3cccc(Cl)c3)c(=O)c2c(O)c1=O` [Example 176, N-(2-methoxyethyl)-2-(3-chlorobenzyl)-9-hydroxy-1,8-dioxo-1,8-dihydro-2H-pyrido[1,2-a]pyrazine-7-carboxamide], 0.01 to 0.1 µM; for `CC(C)C(=O)Nc1cn2ccn(Cc3ccc(F)cc3)c(=O)c2c(O)c1=O` [Example 321, N-[2-(4-fluorobenzyl)-9-hydroxy-1,8-dioxo-1,8-dihydro-2H-pyrido[1,2-a]pyrazin-7-yl]isobutyramide], 0.01 to 0.1 µM.
For `CC(=O)c1cn2ccn(Cc3ccc(F)cc3)c(=O)c2c(O)c1=O` [Example 344, 7-acetyl-2-(4-fluorobenzyl)-9-hydroxy-2H-pyrido [1,2-a]pyrazine-1,8-dione] the value was < 0.01 µM.
Regarding `O=C1c2c(O)c(=O)c(-c3nccs3)cn2CCN1CCCc1ccccc1Cl` [Example 298, 2-[3-(2-chlorophenyl)propyl]-9-hydroxy-7-(thiazol-2-yl)-3,4-dihydro-2H-pyrido[1,2-a]pyrazine-1,8-dione hydrochloride], the IC50 was < 0.01 µM.
Consider `CN(C)C(=O)c1cn2c(c(O)c1=O)C(=O)N(Cc1ccc(F)c(Cl)c1)CC2` [Example 228, N,N-dimethyl-2-(3-chloro-4-fluorobenzyl)-9-hydroxy-1,8-dioxo-1,3,4,8-tetrahydro-2H-pyrido[1,2-a]pyrazine-7-carboxamide], for which the IC50 fell in the range of 0.01 to 0.1 µM.
For `O=c1c(-c2cnccn2)cn2ccn(Cc3cccc(F)c3)c(=O)c2c1O` [Example 404, 2-(3-fluorobenzyl)-9-hydroxy-7-(pyrazin-2-yl)-2H-pyrido[1,2-a]pyrazine-1,8-dione hydrochloride] the value was 0.01 to 0.1 µM.
As to `CC(=O)Nc1cn2ccn(Cc3cccc(Cl)c3)c(=O)c2c(O)c1=O` [Example 165, N-[2-(3-chlorobenzyl)-9-hydroxy-1,8-dioxo-1,8-dihydro-2H-pyrido[1,2-a]pyrazin-7-yl]acetamide], the IC50 fell in the range of 0.01 to 0.1 µM.
For `CC(C)c1cn(Cc2cccc(Cl)c2)c(=O)c2c(O)c(=O)c(Br)cn12` [Example 129, 7-bromo-2-(3-chlorobenzyl)-9-hydroxy-4-isopropyl-2H-pyrido[1,2-a]pyrazine-1,8-dione hydrochloride] the value was 0.01 to 0.1 µM; for `O=C1c2c(O)c(=O)ccn2CCN1Cc1ccc(F)c(Cl)c1` [Example 64, 2-(3-chloro-4-fluorobenzyl)-9-hydroxy-3,4-dihydro-2H-pyrido[1,2-a]pyrazine-1,8-dione], 0.01 to 0.1 µM.
The same measure for `O=C(Cc1cc(=O)c(O)c2n1CCN(Cc1ccc(Cl)c(Cl)c1)C2=O)OCc1ccccc1` [Example 81]: < 0.01 µM; for `CC(C)C(C(=O)Nc1cn2ccn(Cc3cccc(Cl)c3)c(=O)c2c(O)c1=O)C(C)C` [Example 284, N-[2-(3-chlorobenzyl)-9-hydroxy-1,8-dioxo-1,8-dihydro-2H-pyrido[1,2-a]pyrazin-7-yl] -2-isopropyl-3-methylbutyramide]: 0.01 to 0.1 µM; for `CC(C)C1CN(Cc2ccc(Cl)c(Cl)c2)C(=O)c2c(O)c(=O)ccn21` (stereo not shown) [Example 17, 2-(3,4-dichlorobenzyl)-9-hydroxy-4-isopropyl-3,4-dihydro-2H-pyrido[1,2-a]pyrazine-1,8-dione]: 0.01 to 0.1 µM.
The same measure for `O=C1c2c(O)c(=O)c(-c3nccs3)cn2CCN1Cc1cc(Cl)cc(OCc2ccccc2)c1` [Example 398, 2-(3-benzyloxy-5-chlorobenzyl)-9-hydroxy-7-(thiazol-2-yl)-3,4-dihydro-2H-pyrido[1,2-a]pyrazine-1,8-dione hydrochloride]: 0.01 to 0.1 µM; for `Cn1ccnc1-c1cn2ccn(Cc3cccc(Cl)c3)c(=O)c2c(O)c1=O` [Example 148, 2-(3-chlorobenzyl)-9-hydroxy-7-(1-methyl-1H-imidazol-2-yl)-2H-pyrido[1,2-a]pyrazine-1,8-dione hydrochloride]: 0.01 to 0.1 µM; for `O=c1c(Cc2ccccc2)cn2ccn(Cc3cccc(Cl)c3)c(=O)c2c1O` [Example 140, 7-benzyl-2-(3-chlorobenzyl)-9-hydroxy-2H-pyrido[1,2-a]pyrazine-1,8-dione hydrochloride]: 0.01 to 0.1 µM.
For `CCCOc1ccc(CN2CCn3cc(-c4nccs4)c(=O)c(O)c3C2=O)cc1Cl` [Example 354, 2-(3-chloro-4-propoxybenzyl)-9-hydroxy-7-(thiazol-2-yl)-3,4-dihydro-2H-pyrido[1,2-a]pyrazine-1,8-dione hydrochloride], the half-inhibitory concentration (IC50) fell in the range of 0.01 to 0.1 µM.
For `COC(=O)c1cc(F)ccc1CN1CCn2cc(-c3nccs3)c(=O)c(O)c2C1=O` [Example 326, methyl 5-fluoro-2-[9-hydroxy-1,8-dioxo-7-(thiazol-2-yl)-1,3,4,8-tetrahydro-pyrido[1,2-a]pyrazin-2-ylmethyl]benzoate] the value was 0.1 to 1 µM.
The same measure for `COCCN(C)C(=O)c1cn2ccn(Cc3cccc(Cl)c3)c(=O)c2c(O)c1=O` [Example 183, N-(2-methoxyethyl)-N-methyl-2-(3-chlorobenzyl)-9-hydroxy-1,8-dioxo-1,8-dihydro-2H-pyrido[1,2-a]pyrazine-7-carboxamide]: 0.01 to 0.1 µM.
As to `O=C(NCCOC(=O)C(F)(F)F)c1cn2ccn(Cc3cccc(Cl)c3)c(=O)c2c(O)c1=O` [Example 177, 2-{[2-(3-chlorobenzyl)-9-hydroxy-1,8-dioxo-1,8-dihydro-2H-pyrido[1,2-a]pyrazine-7-carbonyl]amino}ethyl trifluoroacetate], the IC50 lay in the range of 0.01 to 0.1 µM.
The same measure for `O=C1c2c(O)c(=O)c(NS(=O)(=O)c3cccs3)cn2CCN1Cc1ccc(F)c(Cl)c1` [Example 420, N-[2-(3-chloro-4-fluorobenzyl)-9-hydroxy-1,8-dioxo-1,3,4,8-tetrahydro-2H-pyrido[1,2-a]pyrazin-7-yl]-2-thiophenesulfonamide]: 0.01 to 0.1 µM.

For the origin of these results see patent publication US7211572B2 (Japan Tobacco Inc., priority 2003, dated 2007).
